Molecules are shown by their SMILES. Where two headings read alike, the source gives them in different places. Where a SMILES comes first, the peptide text is derived from it. Bridges are numbered along the chain shown (N, C = ends). [ ]: non-standard residue; d: D form. The star is where a group is joined. Ileψ(thiazoline)Cys = CC[C@H](C)[C@H](N)C1=N[C@H](C(=O)*)CS1; dOrn = NCCC[C@@H](N)C(=O)O

In one experiment the target is PDI association with TF (Homo sapiens, UniProt P07237). Kind of experiment: Cell surface MPB/NHS labelling and TF immunoprecipitation (PDI association with TF).
Another experiment concerns the target TF-PAR2 complex (Homo sapiens, UniProt P13726). The experiment is described as follows: TF-PAR2 complex co-immunoprecipitation from HaCaT cells. It is filed as cell-based. The settings on record: Hg2+ pretreatment, high Ca2+ cells. The source says: Additional studies as illustrated in FIG. 7 indicate that TF-VIIa signaling requires TF.PAR2 complex formation. […] Loading controls were not feasible due to background, because no PAR suitable antibody from a different species was available for Western-blotting. […] MPB-labeled cells were immunoprecipitated with MAb-9C3 or MAb-10H10 and probed for PDI, TF or thiol-biotinylation with MPB.

The target in experiment [1] is tissue factor (TF) coagulant activity (Homo sapiens, UniProt P13726). Kind of experiment: TF coagulant activity (Xa generation) on HaCaT cells. It is filed as cell-based.
Another experiment has as its system TF-VIIa signaling. Kind of experiment: TF-VIIa signaling in HaCaT cells (MAP kinase phosphorylation).

tissue factor (TF) coagulant activity, sequence (P13726 33-295): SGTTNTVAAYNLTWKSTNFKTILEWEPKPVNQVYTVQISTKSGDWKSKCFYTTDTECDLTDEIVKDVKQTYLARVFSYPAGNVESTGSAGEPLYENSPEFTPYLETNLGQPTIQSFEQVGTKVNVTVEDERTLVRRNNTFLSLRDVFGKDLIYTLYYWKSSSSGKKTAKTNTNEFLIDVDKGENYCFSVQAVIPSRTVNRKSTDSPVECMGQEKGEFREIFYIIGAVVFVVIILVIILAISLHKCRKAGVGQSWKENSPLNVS
PDI association with TF, sequence (P07237 18-508): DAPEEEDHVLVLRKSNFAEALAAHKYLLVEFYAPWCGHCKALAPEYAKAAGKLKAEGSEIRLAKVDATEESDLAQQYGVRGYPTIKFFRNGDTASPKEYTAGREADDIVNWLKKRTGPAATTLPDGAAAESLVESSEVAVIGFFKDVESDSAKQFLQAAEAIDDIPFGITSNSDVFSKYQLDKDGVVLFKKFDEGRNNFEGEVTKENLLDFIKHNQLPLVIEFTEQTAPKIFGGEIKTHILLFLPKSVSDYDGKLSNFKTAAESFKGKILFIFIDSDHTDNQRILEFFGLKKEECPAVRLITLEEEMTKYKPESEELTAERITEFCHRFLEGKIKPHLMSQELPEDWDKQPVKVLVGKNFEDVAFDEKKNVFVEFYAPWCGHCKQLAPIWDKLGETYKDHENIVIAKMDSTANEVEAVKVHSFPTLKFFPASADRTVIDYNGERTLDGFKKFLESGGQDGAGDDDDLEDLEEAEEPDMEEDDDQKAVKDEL
TF-PAR2 complex, sequence (P13726 33-295, one chain of several): as the sequence (P13726 33-295) above
Procedure for PDI association with TF: Cell surface labelling, immunoprecipitation, confocal imaging Cells were washed and labelled in HEPES buffer with 1.5 mM calcium chloride with either 100 μM MPB or 0.5 mg/ml NHS biotin at 4° C. for 20 min. […] Blots were digitized for densitometry using NIH Image Scion. Cells were stained on ice with directly conjugated antibodies for confocal microscopy using a Nikon TE2000-U microscope. Optical sections of each fluorophor were merged using Adobe Photoshop.

As for `[Cl][Hg][Cl]` [HgCl2], at PDI association with TF, the “Association (co-precipitation) of PDI with TF” value is “specifically disrupted the association of PDI with TF”. In addition, the “PAR2 complex formation with TF in MAb-5G9 immunoprecipitates” value at TF-PAR2 complex was “abolished PAR2 complex formation with TF”. Also, in experiment [1], the “Concentration required to enhance TF coagulant activity” value lay in the range of 50 to 100 µM, the “HgCl2 activation of coagulation in the presence of bacitracin” value was “did not increase coagulation in the presence of bacitracin”, the “TF coagulant activity in high Ca2+ cells” value is on record as “increased TF coagulant activity substantially” and the “TF coagulant activity in low Ca2+ cells” value was “little effect”.
With `N[C@@H](CCC(=O)N[C@@H](CS)C(=O)NCC(=O)O)C(=O)O` [GSH, reduced glutathione], in experiment [1], the “TF coagulant activity after Hg2+-induced activation and washout” value is reported as “no effect on TF activity”.
Consider `N[C@@H](CCC(=O)N[C@@H](CSN=O)C(=O)NCC(=O)O)C(=O)O` [S-nitrosoglutathione], for which, in experiment [1], the “TF coagulant activity after Hg2+-induced activation and washout” value is recorded as “sufficient to suppress TF coagulant activity”.
For `CC[C@H](C)[C@H](N)C1=N[C@H](C(=O)N[C@@H](CC(C)C)C(=O)N[C@H](CCC(=O)O)C(=O)N[C@H](C(=O)N[C@H]2CCCCNC(=O)[C@H](CC(N)=O)NC(=O)[C@@H](CC(=O)O)NC(=O)[C@H](Cc3cnc[nH]3)NC(=O)[C@@H](Cc3ccccc3)NC(=O)[C@H]([C@@H](C)CC)NC(=O)[C@@H](CCCN)NC2=O)[C@@H](C)CC)CS1` [bacitracin] ({Ileψ(thiazoline)Cys}-L[dE]IK[dOrn]I[dF]H[dD]N; lactam 4-C), on PDI association with TF (high Ca2+ HaCaT cells), the “Association (co-precipitation) of PDI with TF” value is reported as “prevented the co-precipitation of PDI with TF”. Besides, the TF-VIIa signaling entry in the experiment on TF-VIIa signaling (HaCaT cells, 10 nM VIIa) is on record as “inhibited TF-VIIa signaling”. In addition, the “HgCl2 activation of coagulation in the presence of bacitracin” value in experiment [1] (HgCl2 with bacitracin) is reported as “reversible inhibitor of HgCl2 activation”. The “TF coagulant activity in high Ca2+ cells” value in experiment [1] (high Ca2+ HaCaT cells, 100 μM HgCl2 for 2 minutes, bacitracin 3 mM) was “slightly increased coagulant function of TF”.
Regarding `C[C@@H]1C[C@@H]([C@H](O)CC2CC(=O)NC(=O)C2)C(=O)[C@@H](C)C1` [cycloheximide], the TF-VIIa signaling result in the experiment on TF-VIIa signaling is listed as “prevented TF-VIIa signaling”.

Values taken from patent US20100028358A1, “Compositions and Methods for Controlling Tissue Factor Signaling Specificity” (priority 2005, published 2010).
